In patent US6229029A, “11β-aryl substituted 14,17-ethanoestratriens, method for the production of these compounds and their use in the production of medicaments” (Schering Aktiengesellschaft, priority 1997, dated 2001):

Columns and labels:
[1] = test system: trabecular bone (proximal tibia) of ovariectomized rats; assay: Bone studies in ovariectomized rats: trabecular bone surface area (TB/TV), histological, proximal tibia; format: in vivo, rat; conditions: Table 4, proximal tibia, 28 days
Method: (§1) 3-month-old female rats are ovariectomized and treated once daily with the test compound immediately after the operation for 28 days. The administration is done subcutaneously in castor oil/benzyl benzoate or arachis oil/ethanol. The animals are sacrificed on the day after the last administration, and femurs, tibiae and uteri are removed. The uteri are weighed, fixed and worked up for histological studies. The determination of the bone density is carried out ex vivo on prepared long bones with use of pQCT (Quantitative Computer Tomography). The measurements are performed at a distance of 5-7 mm from the ball of the joint on the distal femur or the proximal tibia.
As an alternative, the action on the bone is determined by measuring the trabecular bone surface area of the secondary spongiosa in histological preparations of the distal femur or the proximal tibia. The result is expressed as the proportion, in percent, of the trabecular bone surface area in the measured total bone surface area ([…]). The bone density that is measured with use of QCT and the trabecular bone surface area that is determined in the histological section correlate well to one another. A comparison of the two measurement variables is therefore permissible.
About 50% of the bone density of the animals is lost by the ovariectomy. […] In Table 4 and FIG. 2, the results of this test for doses of 0.1-100 μg/animal/day are presented. The bone density was measured on the distal femur; for comparison, the trabecular bone surface area in the proximal tibia was measured. The data that are contained in Table 4 mean specifically:
TB/TV trabecular bone surface area/total bone surface area; histologically determined
For compound B according to the invention, their bone-protecting action was also determined (Table 6). For this purpose, the parameter of TB/TV was determined, which, however, with respect to the informational value for the bone-protecting activity correlates well to the parameter of BMD-qCT that is determined for compounds A and V. This can be ascertained from Table 4; both parameters were determined for compound A.

uterus of infant rats [2] = assay: Uterus growth test on infant rats (estrogenic action); format: in vivo, rat; conditions: for Epithelial Height % E2 / Uterus Weight % E2: 3 days, infant rats
Excerpt: (§2) The influence of the compounds according to the invention on the uterus was examined in the uterus growth test (estrogenic action) and in the anti-uterus growth test (antiestrogenic action), both performed on infant rats.
In infant animals, both uterus and vagina show one of the estrogenic activity-dependent weight increases in their treatment with an estrogenically active substance. In the uterus, under estrogenic action, moreover, it results in a proliferation and height increase of the luminal epithelium.
Immature, normal rats (body weight 40-50 g) receive the substance s.c. over 3 days (d1-d3). On day 4 (d4), the animals are sacrificed with CO2. The uteri are prepared outside and weighed. A piece of the uterus, preferably a uterine horn, is set in formaldehyde for the histological evaluation and embedded in paraffin. The stimulation of the organ weights (relative to mg/100 g of body weight) and the epithelial height are indicated in percentage stimulation in comparison to the reference compound 17β-estradiol. (Substitution dose E2 0.3 μg/animal).

[3] = test system: uterus of ovariectomized rats; assay: Uterus weight in ovariectomized rats of the bone studies; format: in vivo, rat
Method: as §1

uterus of infant rats [4] = assay: Anti-uterus growth test in infant rats (antiestrogenic action); format: in vivo, rat; conditions: with 0.3 μg/animal/day 17β-estradiol
Excerpt: as §2
The uterus of infant estrogen-substituted rats can be used as a test model to detect a direct action of substances with antiestrogenic properties. The parameter of the estrogenic action is the uterus growth that is induced by estradiol in infant rats and that is inhibited by simultaneous administration of a substance with antiestrogenic action.
The test substances are treated s.c. on 3 successive days (d1-d3) in combination with a substitution dose of 0.3 μg/animal/day of 17β-estradiol. As a positive control, 17β-estradiol alone is used; the vehicle group is used as a negative control. On day 4 (d4), the animals are sacrificed, uteri and vaginae are prepared outside and weighed. The organ weights are converted into mg/100 g of body weight, and then the mean and the standard deviation for each dosage are calculated. The inhibition of the uterus or vaginal growth that is induced by 17β-estradiol is indicated in % as inhibition.

[5] = test system: bone (distal femur / proximal tibia) of ovariectomized rats; assay: Bone studies in ovariectomized rats: bone density by pQCT; format: in vivo, rat; conditions: for % of Action of E2 (bone density femur) / Bone Density Femur: Table 4, distal femur; for % of Action of E2 (bone density femur) / Bone Density Femur / Bone Density / % of Action of E2 (bone density): 28 days; for Bone Density / % of Action of E2 (bone density): Table 5, proximal tibia
estrogen receptors = target: T1, estrogen receptors (Homo sapiens, UniProt P03372); assay: Transactivation assay in HeLa cells (partial estrogenic action, rPR-TK); format: cell-based; conditions: rPR-TK reporter, read-out: Agonism HELA (rPR-TK)
T1 construct: expressed in transfected cells; host or cells: HeLa cells
T1 sequence (P03372 whole entry): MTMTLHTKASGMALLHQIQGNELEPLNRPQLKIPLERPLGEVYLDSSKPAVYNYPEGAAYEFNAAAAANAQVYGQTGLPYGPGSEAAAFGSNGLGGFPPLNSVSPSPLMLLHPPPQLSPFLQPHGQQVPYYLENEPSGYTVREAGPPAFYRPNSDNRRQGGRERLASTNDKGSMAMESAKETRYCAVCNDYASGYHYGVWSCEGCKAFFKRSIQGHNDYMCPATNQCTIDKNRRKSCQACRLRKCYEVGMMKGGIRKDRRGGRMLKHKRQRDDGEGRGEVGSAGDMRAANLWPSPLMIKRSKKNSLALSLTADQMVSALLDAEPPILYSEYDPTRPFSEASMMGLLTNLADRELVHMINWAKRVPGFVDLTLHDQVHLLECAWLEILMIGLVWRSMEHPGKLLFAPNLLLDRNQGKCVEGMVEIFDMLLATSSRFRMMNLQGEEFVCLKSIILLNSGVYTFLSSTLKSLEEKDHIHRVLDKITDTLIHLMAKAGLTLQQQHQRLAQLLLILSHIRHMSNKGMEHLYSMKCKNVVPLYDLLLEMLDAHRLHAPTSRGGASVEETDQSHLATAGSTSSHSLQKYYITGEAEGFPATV
Method: The partial estrogenic action was also determined by transactivation assays. HeLa cells were […] with estrogen receptors and a reporter gene, which consists of the estrogen-response element of the progesterone receptor and the CAT-gene. The test was performed as described: Savouret et al., EMBO J. 10, 1875-1883 (1991).

bone / uterus of rats = assay: Dissociation of bone action/uterus action (FIG. 7); format: in vivo, rat; conditions: bone action vs uterus epithelial height, relative to 17β-estradiol
Excerpt: There, for compounds A, B and V, their bone-protecting actions are compared to the action of estrogen on the uterus (parameter: uterus epithelial height) as a function of dosage, in each case relative to the action of 17β-estradiol.

SMILES: C[C@]12C[C@H](c3ccc(OCCCCCS(=O)(=O)Cc4ccccn4)cc3)[C@@H]3c4ccc(O)cc4CC[C@H]3[C@]13CC[C@@]2(O)CC3 [Compound A]
- TB/TV (Tibia) ([1]; 0.1 μg/animal/day s.c.): 17.2%
- % of Action of E2 (TB/TV tibia) ([1]; 1 μg/animal/day s.c.): 17%
- TB/TV (Tibia) ([1]; 1 μg/animal/day s.c.): 18.9%
- % of Action of E2 (TB/TV tibia) ([1]; 10 μg/animal/day s.c.): 35%
- TB/TV (Tibia) ([1]; 10 μg/animal/day s.c.): 22.5%
- % of Action of E2 (TB/TV tibia) ([1]; 100 μg/animal/day s.c.): 62%
- TB/TV (Tibia) ([1]; 100 μg/animal/day s.c.): 27.0%
- % of Action of E2 (TB/TV tibia) ([1]; cell empty for 17β-estradiol, 0.1 μg/animal/day s.c.): 4.1%
- Epithelial Height % E2 (uterus of infant rats [2]; 0.01 mg/kg s.c.): 6 % E2
- Uterus Weight % E2 (uterus of infant rats [2]; 0.01 mg/kg s.c.): 2 % E2
- Epithelial Height % E2 (uterus of infant rats [2]; 0.1 mg/kg s.c.): -16 % E2
- Uterus Weight % E2 (uterus of infant rats [2]; 0.1 mg/kg s.c.): 0 % E2
- Epithelial Height % E2 (uterus of infant rats [2]; 1 mg/kg s.c.): -8 % E2
- Uterus Weight % E2 (uterus of infant rats [2]; 1 mg/kg s.c.): -7 % E2
- Epithelial Height % E2 (uterus of infant rats [2]; 10 mg/kg s.c.): -22 % E2
- Uterus Weight % E2 (uterus of infant rats [2]; 10 mg/kg s.c.): -15 % E2
- estrogenic action in the uterus (in words) (uterus of infant rats [2]; s.c., uterus growth test): without any estrogenic action in the uterus
- stimulation of uterus weight (in words) ([3]; FIG. 3, test of Table 4, 0.1-100 μg/animal/day): stimulates the uterus weight, but at most does so marginally
- stimulation of uterus weight (in words) ([3]; FIG. 5, test of Table 5, all tested dosages 100-2000 μg/animal/day): stimulates the uterus weight only marginally in all tested dosages
- Uterus Weight % of Inhibition (uterus of infant rats [4]; 0.1 mg/kg s.c.): 33%
- Uterus Weight % of Inhibition (uterus of infant rats [4]; 1 mg/kg s.c.): 88%
- Uterus Weight % of Inhibition (uterus of infant rats [4]; 10 mg/kg s.c.): 121%
- % of Action of E2 (bone density femur) ([5]; 0.1 μg/animal/day s.c.): 14%
- Bone Density Femur ([5]; 0.1 μg/animal/day s.c.): 296.4 mg Ca/ccm
- % of Action of E2 (bone density femur) ([5]; 1 μg/animal/day s.c.): 31%
- Bone Density Femur ([5]; 1 μg/animal/day s.c.): 309.6 mg Ca/ccm
- % of Action of E2 (bone density femur) ([5]; 10 μg/animal/day s.c.): 60%
- Bone Density Femur ([5]; 10 μg/animal/day s.c.): 331.3 mg Ca/ccm
- % of Action of E2 (bone density femur) ([5]; 100 μg/animal/day s.c.): 50%
- Bone Density Femur ([5]; 100 μg/animal/day s.c.): 324.1 mg Ca/ccm
- Bone Density ([5]; 100 μg/animal/day s.c.): 361.8 mg Ca/ccm
- % of Action of E2 (bone density) ([5]; 500 μg/animal/day s.c.): 49%
- Bone Density ([5]; 500 μg/animal/day s.c.): 336.3 mg Ca/ccm
- % of Action of E2 (bone density) ([5]; 2000 μg/animal/day s.c.): 65%
- Bone Density ([5]; 2000 μg/animal/day s.c.): 348.8 mg Ca/ccm
- effect of dose increase on bone action (in words) ([5]; above 100 μg/animal/day, proximal tibia): can no longer be increased by increasing the dose
- protective action in comparison to 17β-estradiol ([5]; dose range between 10 and 100 μg/animal/day s.c.): 50-60%
- degradation of bone density after ovariectomy (in words) ([5]; ovariectomized rats, 0.1-100 μg/animal/day): prevented or inhibited
- dose with which an action of about 80% of 17β-estradiol on trabecular bone is achieved ([5]; proximal tibia, s.c.): 100 μg/animal/day
- potency relative to comparison compound V, bone-protecting action ([5]; proximal tibia, vs compound V): 3 factor
- Emax (estrogen receptors): 16%
- dissociation of bone-protecting action from estrogen action on the uterus (in words) (bone / uterus of rats): most dissociated
